Data as given in patent publication US12091411B2, “IRAK degraders and uses thereof” (Kymera Therapeutics, Inc., priority 2022, dated 2024).
Where two headings read alike, the source gives them in different places.

Target: T1, IRAK4 (Homo sapiens, UniProt Q9NWZ3)
T1 construct: Degradation of IRAK4 in OCI-LY10 was quantitatively measured using Meso Scale Discovery technology; endogenous in cells; host or cells: OCI-LY10
T1 sequence (Q9NWZ3 1-460): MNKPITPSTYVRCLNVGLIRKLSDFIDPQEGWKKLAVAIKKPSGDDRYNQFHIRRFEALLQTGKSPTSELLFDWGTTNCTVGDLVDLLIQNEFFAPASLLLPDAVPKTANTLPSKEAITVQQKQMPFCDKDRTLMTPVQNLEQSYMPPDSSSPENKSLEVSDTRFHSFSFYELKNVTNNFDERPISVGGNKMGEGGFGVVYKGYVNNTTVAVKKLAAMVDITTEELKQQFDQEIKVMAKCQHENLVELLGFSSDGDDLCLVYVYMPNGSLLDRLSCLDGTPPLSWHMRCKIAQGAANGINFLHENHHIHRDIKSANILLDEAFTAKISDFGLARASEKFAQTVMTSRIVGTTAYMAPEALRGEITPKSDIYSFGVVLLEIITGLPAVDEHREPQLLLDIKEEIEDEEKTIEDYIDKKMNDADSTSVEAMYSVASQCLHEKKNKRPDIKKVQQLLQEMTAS
Assay: IRAK4 MSD Degradation in OCI-LY10
Assay type: cell-based
Conditions: OCI-LY10 cells, MSD
Procedure, shortened: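 DC50, from a three-parameter logistic fit and reported as letter bins A (<0.01 μM), B, C, D (>0.2 μM or not tested), reflects IRAK4 loss measured by MSD electrochemiluminescence in OCI-LY10 lysates. Treatment: 8 doses, 1:3 steps, top 1 to 10 μM, 4 to 24 h, 37 °C.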

[1] = 4 hrs incubation, read-out: IRAK4 degradation in OCI-LY10 at 4 hrs: DC50
[2] = 24 hrs incubation, read-out: IRAK4 degradation in OCI-LY10 at 24 hrs: DC50

| SMILES | DC50 [1] | DC50 [2] |
| --- | --- | --- |
| Cn1c(=O)n(C2CCC(=O)NC2=O)c2cccc(C#CCN3CCN(C[C@H]4CC[C@H](n5cc(NC(=O)c6cnn7ccc(OC8CCC8)nc67)c(C(F)F)n5)CC4)CC3)c21 (stereo partly shown) [I-244] | > 200 nM | > 200 nM |
| COc1cc2nn([C@H]3CC[C@H](CN4CCC5(CC4)CCN(c4cccc6c4n(C)c(=O)n6C4CCC(=O)NC4=O)CC5)CC3)cc2cc1NC(=O)c1cc(F)cc(C#N)c1 (stereo partly shown) [I-247] | > 200 nM | < 10 nM |
| O=C1CCC(c2cccc3c(C#CCOC4CCN(C[C@H]5CC[C@H](n6cc(NC(=O)c7cnn8ccc(N9C[C@H]%10C[C@@H]9CO%10)nc78)c(C(F)F)n6)CC5)CC4)cccc23)C(=O)N1 (stereo partly shown) [I-248] | > 200 nM | 10 to 100 nM |
| O=C1CCC(c2cncc3c(C#CCOC4CCN(C[C@H]5CC[C@H](n6cc(NC(=O)c7cnn8ccc(N9C[C@H]%10C[C@@H]9CO%10)nc78)c(C(F)F)n6)CC5)CC4)cccc23)C(=O)N1 (stereo partly shown) [I-249] | > 200 nM | > 200 nM |
| O=C1CCC(c2cccc3c(C#CCN4CCN(C[C@H]5CC[C@@H](n6cc(NC(=O)c7cnn8ccc(N9C[C@H]%10C[C@@H]9CO%10)nc78)c(C(F)F)n6)CC5)CC4)cccc23)C(=O)N1 (stereo partly shown) [I-250] | > 200 nM | 10 to 100 nM |
| O=C1CCC(c2cncc3c(C#CCN4CCN(C[C@H]5CC[C@@H](n6cc(NC(=O)c7cnn8ccc(N9C[C@H]%10C[C@@H]9CO%10)nc78)c(C(F)F)n6)CC5)CC4)cccc23)C(=O)N1 (stereo partly shown) [I-251] | > 200 nM | > 200 nM |
| COc1cc2nn([C@H]3CC[C@H](CN4CCC5(CC4)CCN(c4cccc6c(C7CCC(=O)NC7=O)cccc46)CC5)CC3)cc2cc1NC(=O)c1cncc(C#N)c1 (stereo partly shown) [I-252] | > 200 nM | 10 to 100 nM |
| COc1cc2nn([C@H]3CC[C@H](CN4CCC5(CC4)CCN(c4ccc(Cl)c(N6CCC(=O)NC6=O)c4)CC5)CC3)cc2cc1NC(=O)c1cncc(C#N)c1 [I-254] | > 200 nM | > 200 nM |
| COc1cc2nn([C@H]3CC[C@H](CN4CCC5(CC4)CCN(c4ccc(Cl)c(C6CCC(=O)NC6=O)c4)CC5)CC3)cc2cc1NC(=O)c1cncc(C#N)c1 (stereo partly shown) [I-255] | > 200 nM | > 200 nM |
| Cn1c(=O)n(C2CCC(=O)NC2=O)c2cccc(C#CCOC3CCN(C[C@H]4CC[C@H](n5cc(NC(=O)c6cncc(C#N)c6)c(C(F)F)n5)CC4)CC3)c21 (stereo partly shown) [I-264] | > 200 nM | > 200 nM |
| Cn1c(=O)n(C2CCC(=O)NC2=O)c2cccc(C#CCN3CCN(C[C@H]4CC[C@H](n5cc(NC(=O)c6cncc(C#N)c6)c(C(F)F)n5)CC4)CC3)c21 (stereo partly shown) [I-265] | > 200 nM | > 200 nM |
| Cc1ccc(-c2nn([C@H]3CC[C@H](CN4CCC(OCC#Cc5cccc6c5n(C)c(=O)n6C5CCC(=O)NC5=O)CC4)CC3)cc2NC(=O)c2cncc(C#N)c2)nc1 (stereo partly shown) [I-268] | > 200 nM | > 200 nM |
| CN(C[C@H]1CC[C@H](n2cc(CC(=O)c3cnn4ccc(N5CCC(C)(C)CC5)nc34)c(C(F)F)n2)CC1)C1CCN(c2cccc3c2n(C)c(=O)n3C2CCC(=O)NC2=O)CC1 (stereo partly shown) [I-270] | > 200 nM | 10 to 100 nM |
| CN(C[C@H]1CC[C@H](n2cc(NC(=O)c3cnn4ccc(N5CCC6(CC5)CC6)nc34)c(C(F)F)n2)CC1)C1CCN(c2cccc3c2n(C)c(=O)n3C2CCC(=O)NC2=O)CC1 (stereo partly shown) [I-272] | > 200 nM | < 10 nM |
| CN(C[C@H]1CC[C@H](n2cc(NC(=O)c3cnn4ccc(N5CCC(F)(F)CC5)nc34)c(C(F)F)n2)CC1)C1CCN(c2cccc3c2n(C)c(=O)n3C2CCC(=O)NC2=O)CC1 (stereo partly shown) [I-273] | > 200 nM | < 10 nM |
| CN(C[C@H]1CC[C@H](n2cc(NC(=O)c3cnn4ccc(N5CC6(CC6)C5)nc34)c(C(F)F)n2)CC1)C1CCN(c2cccc3c2n(C)c(=O)n3C2CCC(=O)NC2=O)CC1 (stereo partly shown) [I-274] | > 200 nM | < 10 nM |
| CN(C[C@H]1CC[C@H](n2cc(NC(=O)c3cnn4ccc(N5CC(C)(C)C5)nc34)c(C(F)F)n2)CC1)C1CCN(c2cccc3c2n(C)c(=O)n3C2CCC(=O)NC2=O)CC1 (stereo partly shown) [I-275] | > 200 nM | < 10 nM |

Continued, values first:

| DC50 [1] | DC50 [2] | SMILES |
| --- | --- | --- |
| > 200 nM | 10 to 100 nM | Cn1c(=O)n(C2CCC(=O)NC2=O)c2cccc(C#CCN3CCN(C[C@H]4CC[C@H](n5cc(NC(=O)c6cnn7ccc(OC8CCCC8)nc67)c(C(F)F)n5)CC4)CC3)c21 (stereo partly shown) [I-245] |
| > 200 nM | > 200 nM | Cn1c(=O)n(C2CCC(=O)NC2=O)c2cccc(C#CCN3CCN(C[C@H]4CC[C@H](n5cc(NC(=O)c6cnn7ccc(OC8CCCCC8)nc67)c(C(F)F)n5)CC4)CC3)c21 (stereo partly shown) [I-246] |
| > 200 nM | > 200 nM | COc1cc2nn([C@H]3CC[C@H](CN4CCC5(CC4)CCN(c4cccc6c(C7CCC(=O)NC7=O)cncc46)CC5)CC3)cc2cc1NC(=O)c1cncc(C#N)c1 (stereo partly shown) [I-253] |
| > 200 nM | > 200 nM | O=C1CCN(c2cc(C#CCOC3CCN(C[C@H]4CC[C@H](n5cc(NC(=O)c6cnn7ccc(N8C[C@H]9C[C@@H]8CO9)nc67)c(C(F)F)n5)CC4)CC3)ccc2Cl)C(=O)N1 [I-256] |
| > 200 nM | > 200 nM | O=C1CCC(c2cc(C#CCOC3CCN(C[C@H]4CC[C@H](n5cc(NC(=O)c6cnn7ccc(N8C[C@H]9C[C@@H]8CO9)nc67)c(C(F)F)n5)CC4)CC3)ccc2Cl)C(=O)N1 (stereo partly shown) [I-257] |
| > 200 nM | > 200 nM | O=C1CCN(c2cc(C#CCN3CCN(C[C@H]4CC[C@@H](n5cc(NC(=O)c6cnn7ccc(N8C[C@H]9C[C@@H]8CO9)nc67)c(C(F)F)n5)CC4)CC3)ccc2Cl)C(=O)N1 [I-258] |
| > 200 nM | > 200 nM | O=C1CCC(c2cc(C#CCN3CCN(C[C@H]4CC[C@@H](n5cc(NC(=O)c6cnn7ccc(N8C[C@H]9C[C@@H]8CO9)nc67)c(C(F)F)n5)CC4)CC3)ccc2Cl)C(=O)N1 (stereo partly shown) [I-259] |
| > 200 nM | > 200 nM | Cn1c(=O)n(C2CCC(=O)NC2=O)c2cccc(C#CCOC3CCN(C[C@H]4CC[C@H](n5cc(NC(=O)c6cccc(C#N)n6)c(C(F)F)n5)CC4)CC3)c21 (stereo partly shown) [I-260] |
| > 200 nM | > 200 nM | Cn1c(=O)n(C2CCC(=O)NC2=O)c2cccc(C#CCN3CCN(C[C@H]4CC[C@H](n5cc(NC(=O)c6cccc(C#N)n6)c(C(F)F)n5)CC4)CC3)c21 (stereo partly shown) [I-261] |
| > 200 nM | > 200 nM | Cn1c(=O)n(C2CCC(=O)NC2=O)c2cccc(C#CCOC3CCN(C[C@H]4CC[C@H](n5cc(NC(=O)c6cccc(C#N)n6)c(C(C)(C)O)n5)CC4)CC3)c21 (stereo partly shown) [I-262] |
| > 200 nM | > 200 nM | Cn1c(=O)n(C2CCC(=O)NC2=O)c2cccc(C#CCN3CCN(C[C@H]4CC[C@H](n5cc(NC(=O)c6cccc(C#N)n6)c(C(C)(C)O)n5)CC4)CC3)c21 (stereo partly shown) [I-263] |
| > 200 nM | > 200 nM | Cn1c(=O)n(C2CCC(=O)NC2=O)c2cccc(C#CCOC3CCN(C[C@H]4CC[C@H](n5cc(NC(=O)c6cncc(C#N)c6)c(C(C)(C)O)n5)CC4)CC3)c21 (stereo partly shown) [I-266] |
| > 200 nM | > 200 nM | Cn1c(=O)n(C2CCC(=O)NC2=O)c2cccc(C#CCN3CCN(C[C@H]4CC[C@H](n5cc(NC(=O)c6cncc(C#N)c6)c(C(C)(C)O)n5)CC4)CC3)c21 (stereo partly shown) [I-267] |
| > 200 nM | > 200 nM | Cc1ccc(-c2nn([C@H]3CC[C@H](CN4CCN(CC#Cc5cccc6c5n(C)c(=O)n6C5CCC(=O)NC5=O)CC4)CC3)cc2NC(=O)c2cncc(C#N)c2)nc1 (stereo partly shown) [I-269] |
| > 200 nM | < 10 nM | CC1CCN(c2ccn3ncc(C(=O)Nc4cn([C@H]5CC[C@H](CN(C)C6CCN(c7cccc8c7n(C)c(=O)n8C7CCC(=O)NC7=O)CC6)CC5)nc4C(F)F)c3n2)CC1 (stereo partly shown) [I-271] |
